Results reported in patent US8957215B2, “Heteroaryl substituted benzothiazoles” (Navidea Biopharmaceuticals, Inc., priority 2006, dated 2015).
Where two headings read alike, the source gives them in different places.

Key:
[1] = during the first 5-10 min, reference radioligands; cited from earlier work
synthetic Aβ 1-40 [2] = biological target: T1, synthetic Aβ 1-40 (Homo sapiens, UniProt P05067); test: Competition binding assay with [^3H]PIB as radioligand
T1 construct: using synthetic Aβ 1-40 in 2.7 nM of [^3H]PIB
Protocol: (§1) Competition binding was performed in 384-well FB filter plates using synthetic Aβ 1-40 in 2.7 nM of [^3H]PIB (or another ^3H-labeled radioligand when so mentioned) in phosphate buffer at pH 7.5, by adding various concentrations of non-radioactive compounds originally dissolved in DMSO. The binding mixture was incubated for 30 min at room temperature, followed by vacuum filtration, and subsequentially by washing twice with 1% Triton-X100. Scintillation fluid was thereafter added to the collected Aβ 1-40 on the filter plate, and the activity of the bound remaining radioligand ([^3H]PIB or another ^3H-labeled radioligand) was measured using 1450 Microbeta from PerkinElmer.
Specific binding was determined according to the competition binding assay described herein. The determined IC50's in the competition binding assays (using [^3H]PIB as radioligand) of 5 compounds of the present invention are shown in Table 1. Results (activity of remaining [^3H]PIB versus increasing concentration of non-labeled compounds) from typical competition assay experiments are exemplified in FIG. 1. In a similar way, competition studies with ^3H-labeled heteroaryl substituted benzthiazole derivates of the present invention were also conducted. Such results, from a typical competition study, are examplified in FIG. 2. PIB and 2-[6-(methylamino)pyridin-3-yl]-1,3-benzothiazol-6-ol (a novel compound of the present invention) both displaced [N-methyl-^3H3]-2-(6-methylamino-pyridin-3-yl)-benzothiazol-6-ol (a ^3H-labeled compound of the present invention). The binding of [N-methyl-^3H3]-2-(6-methylamino-pyridin-3-yl)-benzothiazol-6-ol (example 32) to Aβ1-40 fibrils, was reversible as evident from the dissociation experiment exemplified in FIG. 3.

[3] = In vivo rat brain entry study; conditions: i.v.
Protocol: Brain exposure after i.v administration was determined in rat brains using cassette dosing. Four different compounds were dosed followed by plasma and brain sampling at 2 and 30 minutes after the dosing. 2 to 30 min brain concentration ratios, and percentage of total of injected dose after 2 mins found in brain, were calculated. The compound concentrations were determined by analysis of protein precipitated plasma samples by reversed-phase liquid chromatography coupled to a electrospray tandem mass spectrometer.
FIG. 4. Brain and plasma concentration at 2 and 30 minutes after i.v. administration in rat of PIB (upper graph “A”), and 2-[6-(methylamino)pyridin-3-yl]-1,3-benzothiazol-6-ol (lower graph “B”), a compound of the present intervention (example 27).

[4] = biological target: T2, human synthetic Aβ 1-40 fibrils (Homo sapiens, UniProt P05067); test: Dissociation experiment; assay type: binding; conditions: FIG. 3
T2 construct: 2 μM human synthetic Aβ 1-40 fibrils in phosphate buffer pH 7.5
Protocol: Dissociation experiments were performed in 96-well polypropylene deep well plates. 2 μM human synthetic Aβ 1-40 fibrils in phosphate buffer pH 7.5, or buffer alone as control, was incubated with 9 nM of a ^3H-labeled radioligand of the present invention for 4 h at room temperature. Dissociation was started at different time points, by the addition of an equal volume of a non-labeled compound of the present invention, or a reference compound (10 μM), in 4% DMSO in phosphate buffer at pH 7.5. The radioactivity still bound to the Aβ 1-40 fibrils at the end of the incubation was detected on FB filters after filtration in a Brandel apparatus using a wash buffer containing 0.1% Triton-X100.
FIG. 3. Example of a dissociation experiment: Dissociation of [N-methyl-^3H3]-2-(6-methylamino-pyridin-3-yl)-benzothiazol-6-ol (example 32) from Aβ1-40 fibrils over time.

[5] = tested on: amyloid plaques in post-mortem human AD brains; test: Binding to amyloid plaques in post-mortem human AD brain sections
Protocol: (§2) Slide-mounted brain sections (10 μm) from APP/PS1 transgenic mice were collected at the level of the lateral septum (bregma+0.98 mm; see Paxinos and Franklin, 2001). Human cortical sections (7 μm) from two AD patients and 1 control subject were obtained from a Dutch tissue bank.
(§3) Sections were preincubated for 30 minutes at room temperature in 50 mM Tris HCl (pH 7.4) in the presence or absence of 1 μM PIB. Sections were transferred to buffer containing tritium-labeled compound (1 nM) with or without PIB (1 μM) and incubated for 30 minutes at room temperature. Incubation was terminated by 3 consecutive 10 minute rinses in buffer (1° C.) followed by a rapid rinse in distilled water (1° C.). Sections were air dried in front of a fan. Dried sections and plastic tritium standards (Amersham microscales-^3H) were apposed to phosphoimage plates (Fuji) in a cassette and exposed overnight. The following morning, the image plates were processed with a Fuji phosphoimager (BAS 2500) using BAS Reader software. The resulting image was converted to TIF format using Aida software, optimized with Adobe Photoshop (v 8.0) and quantified using Image-J (NIH). Data were statistically analyzed using Excel.

[6] = tested on: amyloid plaques in APP/PS1 transgenic mice brain sections; test: Binding to amyloid plaques in APP/PS1 transgenic mouse brain sections; conditions: 1 nM tritium-labeled compound
Protocol: as §2, §3

[7] = tested on: amyloid plaques in APP/PS1 mouse brain; assay type: in vivo
Protocol: Naïve, awake mice were restrained and intravenously infused via the tail vein with either a tritium labeled compound of the present invention, or a tritium labeled reference compound via the tail vein. In one type of experiment, the animals were rapidly anesthetized with isofluorane and decapitated twenty minutes after compound administration (1 mCi). In another type of experiment, mice were given 1 mCi of a compound and were anesthetized and decapitated at a timepoint of 20, 40 or 80 minutes after administration. Brains were removed and frozen with powdered dry ice. Brains were sectioned (10 μm) in the coronal plane at the level of the striatum with a cryostat, thaw-mounted onto superfrost microscope slides and air-dried.
Methods designed to optimize the imaging of bound ligand after in vivo administration were thereafter employed. To selectively reduce unbound radioactivity levels, one-half of the sections were rinsed (3×10 minutes) in cold (1° C.) Tris buffer (50 mM, pH7.4) followed by a rapid rinse in cold (1° C.) deionized water. Sections were then air dried in front of a fan. Rinsed as well as unrinsed sections and tritium standards were exposed to phosphoimage plates (Fuji). Phosphoimage plates were processed with a Fujifilm BAS-2500 phosphoimager using BAS Reader software.

synthetic Aβ 1-40 [8] = biological target: T1, synthetic Aβ 1-40; test: Competition binding assay with [N-methyl-^3H3]-2-(6-methylamino-pyridin-3-yl)-benzothiazol-6-ol as radioligand; conditions: ^3H-labeled example 32 as radioligand, FIG. 2
Protocol: as §1
Specific binding was determined according to the competition binding assay described herein. The determined IC50's in the competition binding assays (using [^3H]PIB as radioligand) of 5 compounds of the present invention are shown in Table 1. Results (activity of remaining [^3H]PIB versus increasing concentration of non-labeled compounds) from typical competition assay experiments are exemplified in FIG. 1. In a similar way, competition studies with ^3H-labeled heteroaryl substituted benzthiazole derivates of the present invention were also conducted. Such results, from a typical competition study, are examplified in FIG. 2. […]

[9] = Whole body PET measurement in monkey; assay type: in vivo
Protocol: Whole body PET-measurement was performed in one monkey. A sterile physiological phosphate buffer (pH=7.4) solution containing 51 MBq of [^11C]PIB in the first measurement, and 57 MBq of a [^11C]-labelled compound of the present invention in the second measurement, was injected as a bolus into a sural vein over a period of 5 seconds with simultaneous start of PET-data acquisition that lasted for 87 min. The time between radioligand injections was 2 h. PET measurements were assessed visually by creating planar maximum intensity projection images of decay uncorrected data and also converting decay corrected images to ones containing parts-per-million (ppm) values of the total injected radioactivity.

[10] = Brain PET study in monkey; assay type: in vivo
Protocol: The monkey PET study aimed to assess and compare a [^11C]-labelled compound of this invention to [^11C]PIB regarding measures of brain availability, non-specific binding in the brain, whole body biodistribution, elimination and exploration of regional differences in uptake. Five brain PET measurements were performed in three monkeys under anesthesia. In each PET-measurement a sterile physiological phosphate buffer (pH=7.4) solution containing 52-55 MBq of either a [^11C]-labelled compound of this invention, or [^11C]PIB, was injected as a bolus into a sural vein over a period of 5 seconds with simultaneous start of PET-data acquisition. Radioactivity in brain was measured continuously for 93 minutes. Only [^11C]PIB measurement was performed in the first monkey. In the other two monkeys a [^11C]-labelled compound of the present invention was measured first and [^11C]PIB was administered in a subsequent measurement. The time between radioligand injections was approx. 2 h. PET measurements were evaluated with respect to the time-activity curve for the whole brain expressed as percent injected radioactivity dose.

T1 sequence (P05067 672-711 limits assumed): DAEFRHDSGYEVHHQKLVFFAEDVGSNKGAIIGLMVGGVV
T2 sequence (P05067 672-711 limits assumed): as above

Question: For CCN1CCC[C@H]1CNC(=O)c1c(O)c(Cl)cc(Cl)c1O[11CH3] (racemic) [[^11C]raclopride], which “fraction of the total injected radioactivity present in the brain” value [1] is on record?
Answer: Its value is 1-2%.

Question: With CN1CCN(c2ccc(-c3nc4ccc(O)cc4s3)cn2)CC1 [Example 6, 2-[6-(4-Methylpiperazin-1-yl)pyridin-3-yl]-1,3-benzothiazol-6-ol Acetate] as the compound, how does the IC50 (synthetic Aβ 1-40 [2]) read?
Answer: The IC50 was 176 nM.

Question: Which IC50 (synthetic Aβ 1-40 [2]) does the source give for COc1ccc(-c2nc3ccc(C(N)=O)cc3s2)cn1 [Example 9, 2-(6-Methoxypyridin-3-yl)-1,3-benzothiazole-6-carboxamide] here?
Answer: Its IC50 is 170 nM.

Question: Which IC50 (synthetic Aβ 1-40 [2]) does the source give for CC(=O)Nc1ccc2nc(-c3ccc(N4CCN(C)CC4)nc3)sc2c1 [Example 15, N-{2-[6-(4-Methylpiperazin-1-yl)pyridin-3-yl]-1,3-benzothiazol-6-yl}acetamide] here?
Answer: Its IC50 is 186 nM.

Question: Which IC50 (synthetic Aβ 1-40 [2]) does the source give for CNc1ccc(-c2nc3ccc(OC)cc3s2)cn1 [Example 25, 5-(6-Methoxy-1,3-benzothiazol-2-yl)-N-methylpyridin-2-amine] here?
Answer: Its IC50 is 58 nM.

Question: For CNc1ccc(-c2nc3ccc(O)cc3s2)cn1 [Example 27, 2-[6-(Methylamino)pyridin-3-yl]-1,3-benzothiazol-6-ol], which “2 minute to 30 minute brain concentration ratio” value [3] is on record?
Answer: The value was over 15.

Question: What about the brain uptake value ([3]; 2 min time point) of the same compound?
Answer: Its brain uptake value is 1 % of the injected dose.

Question: Which results are given for [3H]C([3H])([3H])Nc1ccc(-c2nc3ccc(O)cc3s2)cn1 [Example 32, [N-Methyl-^3H3]-2-(6-Methylamino-pyridin-3-yl)-benzothiazol-6-ol]?
Answer: reversibility of binding to Aβ1-40 fibrils [4]: reversible; levels of nonspecific binding compared to [^3H]PIB ([5]; human cortical sections): substantially reduced; labeling of dense core plaques ([5]; human cortical sections, 1 nM tritium-labeled compound): labeled dense core plaques; specific binding levels greater than binding observed with [^3H]PIB ([5]; superficial gray layers of human cortex): approximately 40%; labeling of dense core plaques [6]: labeled dense core plaques; cortical plaque labeling in rinsed tissue ([7]; 20 minutes after administration): highest; cortical plaque labeling in rinsed tissue ([7]; 80 minutes after administration): barely detectable; labeling of cortical structures after in vivo administration ([7]; APP/PS1 mice, decapitation 20 minutes after administration): labeled cortical structures; effect of in vitro rinse on levels in corpus callosum ([7]; corpus callosum (white matter)): dramatically reduced; reduction of nonspecific binding by in vitro rinse ([7]; striatum (gray matter)): 78.5%

Question: For CNc1ccc(-c2nc3ccc(O)cc3s2)cc1 [PIB], which “displacement of [N-methyl-^3H3]-2-(6-methylamino-pyridin-3-yl)-benzothiazol-6-ol” value (synthetic Aβ 1-40 [8]) is on record?
Answer: The value was “displaced”.

Question: For [11CH3]Nc1ccc(-c2nc3ccc(O)cc3s2)cc1 [[^11C]PIB, reference compound], which elimination routes [9] is on record?
Answer: The elimination routes was “urinary excretion and hepatobiliary secretion”.

Question: For [11CH3]Nc1ccc(-c2nc3ccc(O)cc3s2)cn1 [^11C-Example 1, [N-Methyl-^11C]-2-(6-Methylamino-pyridin-3-yl)-benzothiazol-6-ol], which “brain concentration after the peak” value ([10]; monkey) is on record?
Answer: The value was “declined rapidly”.

Question: What about the “unspecific binding as compared to [^11C]PIB” value ([10]; monkey brain, time points of relevance for PET-detection) of the same compound?
Answer: Its value is “significantly lower”.

Question: What about the brain exposure ([10]; monkey, FIG. 12) of the same compound?
Answer: The brain exposure was 1-3 % of total injected radioactivity.

Question: What about the “time of peak brain uptake” value ([10]; monkey, after injection) of the same compound?
Answer: The value was “first minute”.

Question: And the “elimination as compared to [^11C]PIB” value [9]?
Answer: Its value is “faster elimination”.

Question: And the elimination routes [9]?
Answer: Its elimination routes is “urinary excretion and hepatobiliary secretion”.
